The values below come from US20230072683A1, “PYRIDO-PYRIMIDIN DERIVATIVES AND PHARMACEUTICAL COMPOSITION, FOR USE IN PREVENTING OR TREATING PI3 KINASE RELATED DISEASES, COMPRISING SAME AS ACTIVE INGREDIENT” (BORYUNG PHARMACEUTICAL CO., LTD, priority 2019, published 2023).

For one test, the target named is DNA-PK(h) (Homo sapiens, UniProt P78527). The experiment in a line: Evaluation of inhibitory activity against DNA-PK (HTRF kinase assay, GST-cMyc-p53 substrate). The class given is biochemical. Conditions: compound at 0.1 μM; read-out: EXP_VALUE(% Inhibition) DNA-PK(h) 0.1 μM. The essentials:
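Human DNA-PK with 50 μM GST-cMyc-p53 substrate; reaction started with Mg/ATP, run 30 min at room temperature, stopped with EDTA. Phospho-Ser15 p53 detected by HTRF (Eu anti-phospho-Ser15, d2 anti-GST), signal = 10000×(Em 665/Em 620).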
For orientation: In TR-FRET formats the signal depends on donor and acceptor labels being close together.

The target in test [1] is PI3K-δ (PI3K(p1108/p857) (h)) (Homo sapiens, UniProt O00329). The experiment in a line: Evaluation of inhibitory activity against PI3K-δ (HTRF kinase assay). The class given is biochemical. Conditions: compound at 0.1 μM; read-out: EXP_VALUE(% Inhibition) PI3K-δ 0.1 μM. The essentials: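 HTRF read-out (665/620 nm ratio ×10000) used Eu-labelled anti-GST, GST-tagged GRP1 PH domain and streptavidin-allophycocyanin after EDTA/PIP3 stop.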
PI3K-δ (PI3K(p1108/p857) (h)), sequence (O00329 whole entry, the tested form may be a part): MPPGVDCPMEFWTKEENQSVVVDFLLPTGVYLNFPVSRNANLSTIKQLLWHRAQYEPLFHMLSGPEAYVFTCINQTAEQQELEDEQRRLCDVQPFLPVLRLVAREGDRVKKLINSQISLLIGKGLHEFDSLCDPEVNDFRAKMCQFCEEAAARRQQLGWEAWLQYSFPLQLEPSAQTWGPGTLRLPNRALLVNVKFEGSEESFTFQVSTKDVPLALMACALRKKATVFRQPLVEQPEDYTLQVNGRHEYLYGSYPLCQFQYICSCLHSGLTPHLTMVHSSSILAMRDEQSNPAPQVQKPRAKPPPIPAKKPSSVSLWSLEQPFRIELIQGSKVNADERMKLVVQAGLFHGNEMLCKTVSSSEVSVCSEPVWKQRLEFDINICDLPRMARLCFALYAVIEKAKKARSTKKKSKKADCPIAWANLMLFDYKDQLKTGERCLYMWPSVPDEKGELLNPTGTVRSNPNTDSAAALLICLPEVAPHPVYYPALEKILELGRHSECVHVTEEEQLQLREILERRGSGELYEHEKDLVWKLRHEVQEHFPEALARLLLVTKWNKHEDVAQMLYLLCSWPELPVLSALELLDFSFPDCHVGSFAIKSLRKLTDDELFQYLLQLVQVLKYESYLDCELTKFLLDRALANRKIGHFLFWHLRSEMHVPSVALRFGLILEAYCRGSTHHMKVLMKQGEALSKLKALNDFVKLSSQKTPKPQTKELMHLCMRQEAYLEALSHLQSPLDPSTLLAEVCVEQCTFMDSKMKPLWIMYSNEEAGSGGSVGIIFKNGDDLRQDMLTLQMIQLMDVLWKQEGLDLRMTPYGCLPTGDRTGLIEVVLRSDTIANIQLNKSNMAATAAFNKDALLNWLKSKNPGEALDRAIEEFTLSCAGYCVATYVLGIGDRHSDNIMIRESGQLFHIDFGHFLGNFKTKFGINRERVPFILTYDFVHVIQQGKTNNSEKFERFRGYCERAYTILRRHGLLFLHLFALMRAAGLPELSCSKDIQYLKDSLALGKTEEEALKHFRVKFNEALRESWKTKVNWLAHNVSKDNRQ
PI3K-δ (PI3K(p1108/p857) (h)), sequence (P27986 whole entry partner, the tested form may be a part): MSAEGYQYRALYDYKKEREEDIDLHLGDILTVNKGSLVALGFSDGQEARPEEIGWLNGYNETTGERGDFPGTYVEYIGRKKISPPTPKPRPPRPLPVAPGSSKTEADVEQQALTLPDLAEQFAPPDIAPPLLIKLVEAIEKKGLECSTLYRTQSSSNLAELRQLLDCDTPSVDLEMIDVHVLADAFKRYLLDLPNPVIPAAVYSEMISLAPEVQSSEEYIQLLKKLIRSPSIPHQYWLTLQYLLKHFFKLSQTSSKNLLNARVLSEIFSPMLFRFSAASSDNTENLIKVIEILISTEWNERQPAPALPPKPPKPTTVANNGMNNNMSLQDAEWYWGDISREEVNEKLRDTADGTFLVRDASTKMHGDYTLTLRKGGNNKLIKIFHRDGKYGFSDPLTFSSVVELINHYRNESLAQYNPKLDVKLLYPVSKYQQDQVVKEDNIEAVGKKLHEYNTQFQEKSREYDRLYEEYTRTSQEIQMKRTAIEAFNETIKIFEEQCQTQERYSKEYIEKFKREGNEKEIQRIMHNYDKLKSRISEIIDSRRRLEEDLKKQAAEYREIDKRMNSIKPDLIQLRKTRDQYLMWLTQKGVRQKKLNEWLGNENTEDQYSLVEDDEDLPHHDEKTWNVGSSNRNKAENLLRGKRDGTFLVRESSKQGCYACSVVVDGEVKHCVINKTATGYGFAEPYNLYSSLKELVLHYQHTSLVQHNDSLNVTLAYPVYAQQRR

Turning to `COc1ncc(-c2cccc3cc([C@H](C)Nc4ncnc5[nH]ccc(=O)c45)n(-c4ccccc4)c(=O)c23)cn1` [Example 383, (S)-4-((1-(8-(2-methoxypyrimidin-5-yl)-1-oxo-2-phenyl-1,2-dihydroisoquinolin-3-yl)ethyl)amino)pyrido[2,3-d]pyrimidin-5(8H)-one], the inhibition (commonly the change of the read-out against control, counted positive when it falls) at 0.1 µM was 10% at DNA-PK(h) and 79% in test [1].
The like results for `CCOc1ncc(-c2cccc3cc([C@H](C)Nc4ncnc5[nH]ccc(=O)c45)n(-c4ccccc4)c(=O)c23)cn1` [Example 384, (S)-4-((1-(8-(2-ethoxypyrimidin-5-yl)-1-oxo-2-phenyl-1,2-dihydroisoquinolin-3-yl)ethyl)amino)pyrido[2,3-d]pyrimidin-5(8H)-one] were, in that order, 40% and 85%.
The like results for `C[C@H](Nc1ncnc2[nH]ccc(=O)c12)c1cc2cccc(-c3cnc(C(F)(F)F)nc3)c2c(=O)n1-c1ccccc1` [Example 385, (S)-4-((1-(1-oxo-2-phenyl-8-(2-(trifluoromethyl)pyrimidin-5-yl)-1,2-dihydroisoquinolin-3-yl)ethyl)amino)pyrido[2,3-d]pyrimidin-5(8H)-one] were, in that order, 4% and 75%.
With `C[C@H](Nc1ncnc2[nH]ccc(=O)c12)c1cc2cccc(-c3cnc(C(C)(C)O)nc3)c2c(=O)n1-c1ccccc1` [Example 386, (S)-4-((1-(8-(2-(2-hydroxypropan-2-yl)pyrimidin-5-yl)-1-oxo-2-phenyl-1,2-dihydroisoquinolin-3-yl)ethyl)amino)pyrido[2,3-d]pyrimidin-5(8H)-one], the inhibition at 0.1 µM worked out at 16% on DNA-PK(h) and 85% in test [1].
The like results for `Cc1ccc(-c2cccc3c(Cl)c([C@H](C)Nc4ncnc5[nH]ccc(=O)c45)n(-c4ccccc4)c(=O)c23)s1` [Example 387, (S)-4-((1-(4-chloro-8-(5-methylthiophen-2-yl)-1-oxo-2-phenyl-1,2-dihydroisoquinolin-3-yl)ethyl)amino)pyrido[2,3-d]pyrimidin-5(8H)-one] were, in that order, 58% and 72%.
The like results for `C[C@H](Nc1ncnc2[nH]ccc(=O)c12)c1c(Cl)c2cccc(-c3cccs3)c2c(=O)n1-c1ccccc1` [Example 388, (S)-4-((1-(4-chloro-1-oxo-2-phenyl-8-(thiophen-2-yl)-1,2-dihydroisoquinolin-3-yl)ethyl)amino)pyrido[2,3-d]pyrimidin-5(8H)-one] were, in that order, 68% and 80%.
The like results for `C[C@H](Nc1ncnc2[nH]ccc(=O)c12)c1c(Cl)c2cccc(C(F)(F)F)c2c(=O)n1-c1ccccc1` [Example 389, (S)-4-((1-(4-chloro-1-oxo-2-phenyl-8-(trifluoromethyl)-1,2-dihydroisoquinolin-3-yl)ethyl)amino)pyrido[2,3-d]pyrimidin-5(8H)-one] were, in that order, 32% and 90%.
On to `C[C@H](Nc1ncnc2[nH]ccc(=O)c12)c1c(Cl)c2cccc(S(C)(=O)=O)c2c(=O)n1-c1ccccc1` [Example 390, (S)-4-((1-(4-chloro-8-(methylsulfonyl)-1-oxo-2-phenyl-1,2-dihydroisoquinolin-3-yl)ethyl)amino)pyrido[2,3-d]pyrimidin-5(8H)-one], for which the inhibition at 0.1 µM was 18% on DNA-PK(h) and 89% in test [1].
Consider `C[C@H](Nc1ncnc2[nH]ccc(=O)c12)c1c(Cl)c2cccc(S(=O)(=O)c3ccncc3)c2c(=O)n1-c1ccccc1` [Example 391, (S)-4-((1-(4-chloro-1-oxo-2-phenyl-8-(pyridin-4-ylsulfonyl)-1,2-dihydroisoquinolin-3-yl)ethyl)amino)pyrido[2,3-d]pyrimidin-5(8H)-one], for which the inhibition at 0.1 µM at DNA-PK(h) amounted to 22%; in test [1], 98%.
The like results for `C[C@H](Nc1ncnc2[nH]ccc(=O)c12)c1c(Cl)c2cccc(-c3cnc(S(C)(=O)=O)nc3)c2c(=O)n1-c1ccccc1` [Example 392, (S)-4-((1-(4-chloro-8-(2-(methylsulfonyl)pyrimidin-5-yl)-1-oxo-2-phenyl-1,2-dihydroisoquinolin-3-yl)ethyl)amino)pyrido[2,3-d]pyrimidin-5(8H)-one] were, in that order, 45% and 94%.
For `C[C@H](Nc1ncnc2[nH]ccc(=O)c12)c1c(Cl)c2cccc(S(=O)(=O)c3ccc(Cl)cc3)c2c(=O)n1-c1ccccc1` [Example 393, (S)-4-((1-(4-chloro-8-((4-chlorophenyl)sulfonyl)-1-oxo-2-phenyl-1,2-dihydroisoquinolin-3-yl)ethyl)amino)pyrido[2,3-d]pyrimidin-5(8H)-one], the inhibition at 0.1 µM turned out to be 17% at DNA-PK(h) and 84% in test [1].
The like results for `C[C@H](Nc1ncnc2[nH]ccc(=O)c12)c1c(Cl)c2cccc([S@+]([O-])c3ccc(OC(F)(F)F)cc3)c2c(=O)n1-c1ccccc1` [Example 395, 4-(((S)-1-(4-chloro-1-oxo-2-phenyl-8-(((R)-4-(trifluoromethoxy)phenyl)sulfinyl)-1,2-dihydroisoquinolin-3-yl)ethyl)amino)pyrido[2,3-d]pyrimidin-5(8H)-one] were, in that order, 15% and 12%.
The like results for `CCC[S@+]([O-])c1cccc2c(Cl)c([C@H](C)Nc3ncnc4[nH]ccc(=O)c34)n(-c3ccccc3)c(=O)c12` [Example 396, 4-(((S)-1-(4-chloro-1-oxo-2-phenyl-8-((S)-propylsulfinyl)-1,2-dihydroisoquinolin-3-yl)ethyl)amino)pyrido[2,3-d]pyrimidin-5(8H)-one] were, in that order, 46% and 29%.
The like results for `CCC[S@@+]([O-])c1cccc2c(Cl)c([C@H](C)Nc3ncnc4[nH]ccc(=O)c34)n(-c3ccccc3)c(=O)c12` [Example 397] were, in that order, 34% and 94%.
Take `C[C@H](Nc1ncnc2[nH]ccc(=O)c12)c1c(Cl)c2cccc(Sc3ccc(F)cc3)c2c(=O)n1-c1ccccc1` [Example 398, (S)-4-((1-(4-chloro-8-((4-fluorophenyl)thio)-1-oxo-2-phenyl-1,2-dihydroisoquinolin-3-yl)ethyl)amino)pyrido[2,3-d]pyrimidin-5(8H)-one]: the inhibition at 0.1 µM at DNA-PK(h) was 3%; in test [1], 7%.
The like results for `C[C@H](Nc1ncnc2[nH]ccc(=O)c12)c1c(Cl)c2cccc(S(=O)(=O)c3ccc(F)cc3)c2c(=O)n1-c1ccccc1` [Example 399, (S)-4-((1-(4-chloro-8-((4-fluorophenyl)sulfonyl)-1-oxo-2-phenyl-1,2-dihydroisoquinolin-3-yl)ethyl)amino)pyrido[2,3-d]pyrimidin-5(8H)-one] were, in that order, 23% and 92%.
The like results for `C[C@H](Nc1ncnc2[nH]ccc(=O)c12)c1c(Cl)c2cccc(Sc3nc[nH]n3)c2c(=O)n1-c1ccccc1` [Example 400, (S)-4-((1-(8-((1H-1,2,4-triazol-3-yl)thio)-4-chloro-1-oxo-2-phenyl-1,2-dihydroisoquinolin-3-yl)ethyl)amino)pyrido[2,3-d]pyrimidin-5(8H)-one] were, in that order, -2% and 16%.
As to `C[C@H](Nc1ncnc2[nH]ccc(=O)c12)c1c(Cl)c2cccc(S(=O)(=O)c3nc[nH]n3)c2c(=O)n1-c1ccccc1` [Example 401, (S)-4-((1-(8-((1H-1,2,4-triazol-3-yl)sulfonyl)-4-chloro-1-oxo-2-phenyl-1,2-dihydroisoquinolin-3-yl)ethyl)amino)pyrido[2,3-d]pyrimidin-5(8H)-one], the inhibition at 0.1 µM at DNA-PK(h) is 24%; in test [1] it was 42%.
The like results for `C[C@H](Nc1ncnc2[nH]ccc(=O)c12)c1c(Cl)c2cccc(-c3cnc(Cl)nc3)c2c(=O)n1-c1ccccc1` [Example 402, (S)-4-((1-(4-chloro-8-(2-chloropyrimidin-5-yl)-1-oxo-2-phenyl-1,2-dihydroisoquinolin-3-yl)ethyl)amino)pyrido[2,3-d]pyrimidin-5(8H)-one] were, in that order, 16% and 71%.
The like results for `CC(=O)c1ncc(-c2cccc3c(Cl)c([C@H](C)Nc4ncnc5[nH]ccc(=O)c45)n(-c4ccccc4)c(=O)c23)cn1` [Example 403, (S)-4-((1-(8-(2-acetylpyrimidin-5-yl)-4-chloro-1-oxo-2-phenyl-1,2-dihydroisoquinolin-3-yl)ethyl)amino)pyrido[2,3-d]pyrimidin-5(8H)-one] were, in that order, 46% and 80%.
The like results for `CCOC(C)(C)c1ncc(-c2cccc3c(Cl)c([C@H](C)Nc4ncnc5[nH]ccc(=O)c45)n(-c4ccccc4)c(=O)c23)cn1` [Example 404, (S)-4-((1-(4-chloro-8-(2-(2-ethoxypropan-2-yl)pyrimidin-5-yl)-1-oxo-2-phenyl-1,2-dihydroisoquinolin-3-yl)ethyl)amino)pyrido[2,3-d]pyrimidin-5(8H)-one] were, in that order, 78% and 70%.
On to `COC(C)(C)c1ncc(-c2cccc3c(Cl)c([C@H](C)Nc4ncnc5[nH]ccc(=O)c45)n(-c4ccccc4)c(=O)c23)cn1` [Example 405, (S)-4-((1-(4-chloro-8-(2-(2-methoxypropan-2-yl)pyrimidin-5-yl)-1-oxo-2-phenyl-1,2-dihydroisoquinolin-3-yl)ethyl)amino)pyrido[2,3-d]pyrimidin-5(8H)-one], for which the inhibition at 0.1 µM on DNA-PK(h) was found to be 74%; in test [1], 69%.
